# Reference: patent publication US10519162B2, “6,7-dihydropyrazolo[1,5-α]pyrazin-4(5H)-one compounds and their use as negative allosteric modulators of mGluR2 receptors” (Janssen Pharmaceutica NV, priority 2014, dated 2019)
# Key:
# rats = assay: Reversal of the effect of the mGluR2 PAM JNJ-42153605-induced inhibition of scopolamine-induced hyperlocomotion (SCOP JNJ-42153605); format: in vivo, rat; conditions: PO (oral route), rats, reversal criterion total distance >1500 cm; for ED50: Rattus norvegicus
# Procedure: 2) Reversal of the Effect of the mGluR2 PAM JNJ-42153605-Induced Inhibition of Scopolamine-Induced Hyperlocomotion Apparatus
# Motor activity was measured in microprocessor-based motor activity arenas (closed gray PVC cylinders with a height of 39 cm and a diameter of 31 cm). Each arena was placed on an infrared LED (8×8 LEDs) lit box (white PVC squared box; 40×40 cm^2; height 12.5 cm. An infrared-sensitive tube camera and a white light source were mounted to the ceiling above the observation chamber to track the animal. The total distance traveled (cm) was recorded and analyzed using the Noldus Ethovision XT Video Tracking System (Version 7.0.418; Noldus, Wageningen, The Netherlands). The intensity of the light within the activity cages (measured in the centre at the level of the floor) ranged between 4 and 8 LUX.
# The rats were pretreated with test compound or vehicle at 60 min before the start of the activity recordings and placed into individual cages. The rats were challenged with JNJ-42153605 (3-(cyclopropylmethyl)-7-(4-phenylpiperidin-1-yl)-8-(trifluoromethyl)[1,2,4]triazolo[4,3-a]pyridine; WO2010/130424; Cid et al. J. Med. Chem. 2012, 55, 8770-8789) (20 mg/kg, i.v.) 30 min before the start of the activity recording combined with scopolamine (0.16 mg/kg, i.v.) just before the start of the activity measurements. Immediately after the injection of scopolamine, the rats were placed into the activity monitors and total distance travelled over the first 30 min was measured.
# Solvent-Pretreated Control Rats.
# Animals receiving the combination of JNJ-42153605 and scopolamine (n=433) almost always travelled a distance of less than 1500 cm (<1500 cm) (only 2.5% of the control rats travelled a distance of more than 1500 cm (>1500 cm)). On the other hand, animals challenged with scopolamine alone (n=215) always travelled a total distance of more than 1500 cm (>1500 cm) and almost always (in 95.8% of the rats) a distance of more than 4400 cm (>4400 cm). […] For reversal of the inhibitory effect of JNJ-42153605 on the scopolamine-induced hyperlocomotion, the following all-or-none criteria were adopted: (1) reversal: total distance >1500 cm.
# human mGlu2 receptor = molecular target: T1, human mGlu2 receptor (Homo sapiens, UniProt Q14416); assay: [35S]GTPγS binding assay (mGluR2 negative allosteric modulation, glutamate ~EC80 60 μM); format: biochemical; conditions: for Emax / GTPγS-hmGluR2 anGT Emax: maximal % inhibition relative to the control glutamate response (EC80 glutamate); for Emax: read-out: GTPγS-hmGluR2 anGT Emax; for IC50: membranes from CHO cells transfected with human mGlu2 receptor, glutamate ~EC80 (60 μM), pIC50 = −log IC50 (M), read-out: GTPγS-hmGluR2 anGT pIC50 (converted)
# T1 construct: expressed in transfected cells; host or cells: CHO cells
# Procedure: 1) [^35S]GTPγS Binding Assay
# [^35S]GTPγS Binding Assay
# Total reaction volume was 200 μl. […] Membrane-bound radioactivity was counted in a Topcount.
# T1 sequence (Q14416 19-872): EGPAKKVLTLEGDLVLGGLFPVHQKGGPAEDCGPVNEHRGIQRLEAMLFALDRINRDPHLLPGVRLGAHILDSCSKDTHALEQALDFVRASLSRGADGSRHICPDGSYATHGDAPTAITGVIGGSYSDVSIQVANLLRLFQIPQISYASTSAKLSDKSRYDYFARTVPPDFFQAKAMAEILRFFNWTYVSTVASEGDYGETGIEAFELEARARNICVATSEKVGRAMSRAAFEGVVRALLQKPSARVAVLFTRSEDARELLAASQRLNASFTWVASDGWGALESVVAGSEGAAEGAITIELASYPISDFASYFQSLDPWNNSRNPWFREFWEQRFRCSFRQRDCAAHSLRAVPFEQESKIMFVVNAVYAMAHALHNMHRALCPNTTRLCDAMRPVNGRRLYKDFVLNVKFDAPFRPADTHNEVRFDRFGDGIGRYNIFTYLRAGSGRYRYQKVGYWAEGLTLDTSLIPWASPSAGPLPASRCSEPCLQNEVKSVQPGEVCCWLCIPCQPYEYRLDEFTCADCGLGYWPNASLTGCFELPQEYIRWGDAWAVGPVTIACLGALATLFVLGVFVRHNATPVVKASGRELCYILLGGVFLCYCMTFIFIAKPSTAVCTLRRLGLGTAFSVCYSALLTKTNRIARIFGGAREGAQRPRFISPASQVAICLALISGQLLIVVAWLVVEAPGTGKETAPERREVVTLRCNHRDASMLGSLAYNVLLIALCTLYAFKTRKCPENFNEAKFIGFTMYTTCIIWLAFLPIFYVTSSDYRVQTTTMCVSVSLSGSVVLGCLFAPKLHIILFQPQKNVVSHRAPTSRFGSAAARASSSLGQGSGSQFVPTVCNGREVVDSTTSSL
Structure (SMILES),ED50 (rats),Emax (human mGlu2 receptor),IC50 (human mGlu2 receptor),melting point,ED50 SCOP JNJ-42153605 (rats),GTPγS-hmGluR2 anGT Emax (human mGlu2 receptor)
COc1cncc(C(=O)Nc2cnn3c2C(=O)N(c2ccc(Cl)c(Cl)c2)C[C@@H]3C)c1 [Co. No. 149],> 0.63 mg/kg,107%,1.66e-09 M,184.46 °C,–,–
C[C@H]1CN(c2ccc(C(F)(F)F)c(F)c2)C(=O)c2c(NC(=O)c3cccnc3)cnn21 [Co. No. 126],–,–,4.17e-09 M,226.14 °C,>0.63 mg/kg,110%
COc1cc(N2C[C@H](C)n3ncc(NC(=O)c4ccccn4)c3C2=O)ccc1C(F)(F)F [Co. No. 111],> 0.63 mg/kg,105%,1.02e-08 M,217.95 °C,–,–
COc1cncc(C(=O)Nc2cnn3c2C(=O)N(c2ccc(C(F)(F)F)c(Cl)c2)C[C@@H]3C)c1C [Co. No. 121],> 0.63 mg/kg,106%,2.09e-08 M,160.45 °C,–,–
Cc1cncc(C(=O)Nc2cnn3c2C(=O)N(c2ccc(C(F)(F)F)cc2)C[C@@H]3C)c1 [Co. No. 99],> 2.5 mg/kg,114%,3.98e-09 M,165.21 °C,–,–
COc1cncc(C(=O)Nc2cnn3c2C(=O)N(c2ccc(C(F)(F)F)c(OC)c2)C[C@@H]3C)c1 [Co. No. 152],> 0.63 mg/kg,106%,9.77e-09 M,115.19 °C,–,–
C[C@H]1CN(c2ccc(C(F)(F)F)c(CF)c2)C(=O)c2c(NC(=O)c3cccnc3N)cnn21 [Co. No. 210],0.32 mg/kg,106%,2.09e-09 M,176.26 °C,–,–
"Cc1cc(C(=O)Nc2cnn3c2C(=O)N(c2ccc(C(F)(F)F)cc2)C[C@@H]3C)ccn1 [Co. No. 29, 2-Methyl-N-[(7S)-7-methyl-4-oxo-5-[4-(trifluoromethyl)phenyl]-6,7-dihydropyrazolo[1,5-a]pyrazin-3-yl]pyridine-4-carboxamide]",> 2.5 mg/kg,100%,6.92e-09 M,145.1 °C,–,–
COc1cc(N2C[C@H](C)n3ncc(NC(=O)c4cncc(C)c4)c3C2=O)ccc1C(F)(F)F [Co. No. 117],> 0.63 mg/kg,104%,8.51e-09 M,166.32 °C,–,–
C[C@H]1CN(c2ccc(C(F)(F)F)cc2)C(=O)c2c(NC(=O)c3cccc(S(N)(=O)=O)c3)cnn21 [Co. No. 177],> 0.63 mg/kg,109%,1.66e-09 M,280.43 °C,–,–
COc1cc(N2C[C@H](C)n3ncc(NC(=O)c4ccc(N)nc4)c3C2=O)ccc1C(F)(F)F [Co. No. 38],> 2.5 mg/kg,109%,9.12e-09 M,179.66 °C,–,–
Cc1cncc(C(=O)Nc2cnn3c2C(=O)N(c2ccc(C(F)(F)F)c(C)c2)C[C@@H]3C)c1 [Co. No. 115],> 0.63 mg/kg,107%,3.39e-09 M,151.53 °C,–,–
Cc1cc(N2C[C@H](C)n3ncc(NC(=O)c4cncc(F)c4)c3C2=O)ccc1C(F)(F)F [Co. No. 107],> 0.63 mg/kg,108%,2.69e-09 M,155.04 °C,–,–
COc1cc(N2C[C@H](C)n3ncc(NC(=O)c4cncc(F)c4)c3C2=O)ccc1C(F)(F)F [Co. No. 116],> 0.63 mg/kg,104%,1e-08 M,162.96 °C,–,–
COc1cccc(C(=O)Nc2cnn3c2C(=O)N(c2ccc(C(F)(F)F)cc2)C[C@@H]3C)c1 [Co. No. 27],> 2.5 mg/kg,106%,6.61e-09 M,136.91 °C,–,–
C[C@H]1CN(c2ccc(C(F)(F)F)cc2)C(=O)c2c(NC(=O)c3ccccc3F)cnn21 [Co. No. 11],> 2.5 mg/kg,104%,2.57e-09 M,241.79 °C,–,–
COc1ccnc(N)c1C(=O)Nc1cnn2c1C(=O)N(c1ccc(C(F)(F)F)cc1)C[C@@H]2C (racemic) [Co. No. 193],> 0.63 mg/kg,106%,2.88e-09 M,248.21 °C,–,–
C[C@H]1CN(c2ccc(C(F)(F)F)cc2)C(=O)c2c(NC(=O)c3cnccn3)cnn21 [Co. No. 35],1.26 mg/kg,112%,8.13e-09 M,219.91 °C,–,–

Structure (SMILES),ED50 (rats),Emax (human mGlu2 receptor),IC50 (human mGlu2 receptor),melting point,ED50 SCOP JNJ-42153605 (rats),GTPγS-hmGluR2 anGT Emax (human mGlu2 receptor)
COc1cnc(C(=O)Nc2cnn3c2C(=O)N(c2ccc(C(F)(F)F)cc2)C[C@@H]3C)cn1 [Co. No. 39],> 2.5 mg/kg,111%,9.33e-09 M,191.33 °C,–,–
C[C@H]1CN(c2ccc(C(F)(F)F)cc2)C(=O)c2c(NC(=O)c3ccc(N)cc3)cnn21 [Co. No. 204],0.318 mg/kg,107%,2.82e-09 M,250.78 °C,–,–
C[C@H]1CN(c2ccc(SC(F)(F)F)cc2)C(=O)c2c(NC(=O)c3cccnc3)cnn21 [Co. No. 179],> 0.63 mg/kg,106%,5.89e-09 M,110.73 °C,–,–
COc1cc(N2C[C@H](C)n3ncc(NC(=O)c4cnccn4)c3C2=O)ccc1C(F)(F)F [Co. No. 118],> 0.63 mg/kg,108%,4.27e-09 M,191.55 °C,–,–
C[C@H]1CN(c2ccc(C(F)(F)F)cc2)C(=O)c2c(NC(=O)c3cccc(F)c3)cnn21 [Co. No. 14],> 2.5 mg/kg,102%,2.75e-09 M,161.84 °C,–,–
COc1cc(N2C[C@H](C)n3ncc(NC(=O)c4ccnc(C)c4)c3C2=O)ccc1C(F)(F)F [Co. No. 123],> 0.63 mg/kg,107%,2.63e-08 M,157.12 °C,–,–
C[C@H]1CN(c2ccc(C(F)(F)F)cc2)C(=O)c2c(NC(=O)c3ccccc3)cnn21 [Co. No. 16],> 2.5 mg/kg,108%,3.39e-09 M,201.48 °C,–,–
Cc1cc(C(=O)Nc2cnn3c2C(=O)N(c2ccc(Cl)cc2)C[C@@H]3C)cc(N)n1 [Co. No. 203],> 0.63 mg/kg,105%,1.12e-08 M,223.01 °C,–,–
Cc1ccnc(N)c1C(=O)Nc1cnn2c1C(=O)N(c1ccc(C(F)(F)F)cc1)C[C@@H]2C (racemic) [Co. No. 192],> 0.63 mg/kg,110%,2.69e-08 M,177.39 °C,–,–
Cc1cccc(C(=O)Nc2cnn3c2C(=O)N(c2ccc(C(F)(F)F)cc2)C[C@@H]3C)n1 [Co. No. 34],> 2.5 mg/kg,116%,8.32e-09 M,214.97 °C,–,–
C[C@H]1CN(c2ccc(S(F)(F)(F)(F)F)cc2)C(=O)c2c(NC(=O)c3cccnc3N)cnn21 [Co. No. 202],0.2 mg/kg,108%,1.15e-09 M,223.96 °C,–,–
COc1cccc(C(=O)Nc2cnn3c2C(=O)N(c2ccc(C(F)(F)F)cc2)C[C@@H]3C)n1 [Co. No. 20],> 2.5 mg/kg,–,4.57e-09 M,190 °C,–,103%
Cc1cnc(N)c(C(=O)Nc2cnn3c2C(=O)N(c2ccc(Cl)c(Cl)c2)C[C@@H]3C)c1 [Co. No. 199],0.08 mg/kg,109%,9.77e-10 M,220.49 °C,–,–
C[C@H]1CN(c2ccc(C(F)(F)F)cc2)C(=O)c2c(NC(=O)c3cccnc3NCCO)cnn21 (racemic) [Co. No. 213],1.12 mg/kg,103%,1.02e-09 M,168.55 °C,–,–
C[C@H]1CN(c2ccc(C(F)(F)F)c(Cl)c2)C(=O)c2c(NC(=O)c3ccccc3)cnn21 [Co. No. 2],> 2.5 mg/kg,105%,1.32e-09 M,161.54 °C,–,–
Cc1cncc(C(=O)Nc2cnn3c2C(=O)N(c2ccc(Cl)c(Cl)c2)C[C@@H]3C)c1 [Co. No. 108],> 0.63 mg/kg,109%,9.77e-10 M,185.71 °C,–,–
C[C@H]1CN(c2ccc(C(F)(F)F)c(F)c2)C(=O)c2c(NC(=O)c3cnccn3)cnn21 [Co. No. 127],> 0.63 mg/kg,104%,6.61e-09 M,236.55 °C,–,–
